Where two headings read alike, the source gives them in different places.
Experiments:
[1] = tested on: P. falciparum chloroquine-resistant strain FcB1-Columbia; test: Antiplasmodial screen at 10 µM and chemosensitivity assay (SYBR Green I), FcB1-Columbia; assay type: cell-based, Plasmodium falciparum
Vero cells = test: Cytotoxicity assay (MTT); details: read-out: Cytotoxicity Mean IC50, Vero cell lines, 48 h, MTT
Description: Vero cells were cultured in MEM (Dutscher, Brumath, France) supplemented with 10% fetal bovine serum, 1× non-essential amino acids, 100 U/mL, 100 µg/mL penicillin/streptomycin, and 2 mM L-glutamine at 37 °C in a humidified 5% CO2 atmosphere. […] At this time, each well was microscope-examined for detection of possible precipitate formation prior to remove the supernatant by flicking the plate. 100 µL of a 0.5 mg/mL PBS-dissolved MTT tetrazolium (stock solution at 5 mg/mL) was then added to each well [48]. The plates were then incubated for 1 h at 37 °C and 5% CO2 prior to removing the supernatant and adding 100 µL of DMSO. Plates were gently shaken to dissolve formazan crystals resulting from the MTT tetrazolium reduction by living cells and read at 570 nm with BioTek µQuant Microplate Spectrophotometer.

Adult S. mansoni = test: In vitro antischistosomal activity on adult worms; assay type: cell-based, Schistosoma mansoni; details: for Mean (±SD) survival time – Adult S. mansoni / Time for the death of 100% worms: 100 µg/mL; for Mean (±SD) survival time – Adult S. mansoni: observation up to 8 h (Table S1); for Time for the death of 100% worms / S. mansoni Mean Survival Time: adult S. mansoni, observation up to 8 h; for S. mansoni Mean Survival Time: single dose 100 µg/mL
Text: The NMRI strain of Schistosoma mansoni was used for the experimentations. The parasite was maintained on an albino variety of Biomphalaria glabrata from Brazil (intermediate host) and in Golden Hamsters, Mesocricetus auratus (Janvier Labs, Le Genest-Saint-Isle, France). Detailed methods, for mollusk and hamster infections and for parasite recovery, were previously described.
Adult worms were recovered between 42 and 47 days after infection by hepatic perfusion technique. Twenty to fifty adult worms were disposed in 12-well Falcon® plate containing 2 mL of RPMI 1640 (supplemented with L-glutamine and Hepes 25 mM) and stored in an incubator chamber (37 °C; 5% CO2). Drug preparation started with dissolution of the drug in DMSO to give a 100 mg/mL stock solution. The dilution was complemented with Tween 80 and RPMI in order to obtain the following final ratio dilution: RPMI 1640/Tween 80/DMSO, 1000/0.95/3.8, v/v/v. The drug solution was added to Falcon plates that contained adult worms. The S. mansoni cultures were then incubated with each drug at a final concentration of 100 µg/mL. Positive control was carried out with a solution of praziquantel (Merck KGaA, Darmstadt, Germany) at a concentration of 100 µg/mL. Negative control was carried out with the same RPMI 1640/Tween 80/DMSO solution, but without any drug. Each test was performed in duplicate. Every hour, moving worms were counted in order to define the percentage of survivors. Parasites showing no body contractions during a 30 s observation were considered as dead. Observations were extended to 8 h. Mean survival times (± standard deviation) were calculated for each drug using Kaplan–Meier survival analyses.

[2] = Homolysis of the NO–C bond measured by EPR
Description: Homolysis rate constants kd’ were measured by EPR and estimated using Equation (1) as reported many times in the literature. Further, Ea and kd were estimated using Equation (2). (1) ln([nitroxide]∞−[nitroxide]t/[nitroxide]∞)=−kd·t (2) Ea=−RT ln([…] kd′ )

[3] = FcB1-Columbia strain, read-out: IC50 on P. falciparum

SMILES	IC50 [1, 3] [µM]	Mean (±SD) survival time – Adult S. mansoni (Adult S. mansoni) [h]	Time for the death of 100% worms (Adult S. mansoni) [h]	other results
CCOP(=O)(OCC)C(N(OC(CN)c1ccccc1)C(C)(C)C)C(C)(C)C (stereo not drawn) [(RR/SS)-1A]	> 10			IC50 (Vero cells; listed as (RR/SS)-1A): > 100 µM
CCOP(=O)(OCC)C(N(OC(CNC(=O)C(F)(F)F)c1ccccc1)C(C)(C)C)C(C)(C)C (stereo not drawn) [(RR/SS)-1E]	> 10	5.0 ± 0.5	6	
CCOP(=O)(OCC)C(N(OC(C)c1cc[n+]([O-])cc1)C(C)(C)C)C(C)(C)C (stereo not drawn) [(RR/SS)-1d]	> 10	> 8	> 8	
CCOP(=O)(OCC)C(N(OC(CN)c1ccccn1)C(C)(C)C)C(C)(C)C (stereo not drawn) [(RR/SS)-1g]	> 10	1.9 ± 0.1	2	
CCOP(=O)(OCC)C(N(OC(C)c1ncc[nH]1)C(C)(C)C)C(C)(C)C (stereo not drawn) [(RR/SS)-1k]	> 10	1.0 ± 0.05	1	S. mansoni Mean Survival Time (Adult S. mansoni): 1.0 ± 0.05 h
CCOP(=O)(OCC)C(N(OC(C)n1ccnc1)C(C)(C)C)C(C)(C)C (stereo not drawn) [(RR/SS)-1o]	25	2.3 ± 0.2	3	
CCOP(=O)(OCC)C(N(OC(C)c1c[nH]cn1)C(C)(C)C)C(C)(C)C (stereo not drawn) [(RR/SS)-1p]		1.0 ± 0.05	1	S. mansoni Mean Survival Time (Adult S. mansoni): 1.0 ± 0.05 h; IC50 (Vero cells): > 100 µM
CCOP(=O)(OCC)C(N(OC(C)c1ccc([N+](=O)[O-])cc1)C(C)(C)C)C(C)(C)C (stereo not drawn) [(RR/SS)-1v]	> 10	3.4 ± 0.2	4	
CCOP(=O)(OCC)C(N(OC(C)c1ccc(N)cc1)C(C)(C)C)C(C)(C)C (stereo not drawn) [(RR/SS)-1w]	> 10	2.1 ± 0.1	3	
CCOP(=O)(OCC)C(N(OC(C)c1ccc(C(=O)OC)cc1)C(C)(C)C)C(C)(C)C (stereo not drawn) [(RR/SS)-1x]	> 10	> 8	> 8	
CCOP(=O)(OCC)C(N(OC(C)c1ccc(C(=O)O)cc1)C(C)(C)C)C(C)(C)C (stereo not drawn) [(RR/SS)-1y]	> 10	> 8	> 8	
CCOP(=O)(OCC)C(N(OC(C)c1cc(-c2ccccc2)cc(-c2ccccc2)c1)C(C)(C)CO)C(C)(C)C (stereo not drawn) [(RR/SS)-2G, Diethyl(1-((1-([1,1′:3′,1′′-terphenyl]-5′-yl)ethoxy)(1-hydroxy-2-methylpropan-2-yl)amino)-2,2-dimethylpropyl)phosphonate]			7	IC50 ([1]; Plasmodium falciparum, FCB1, read-out: IC50 on P. falciparum, FcB1-Columbia strain): > 10 µM; activation energy Ea ([2]; MeOH/water 2:1 pH = 7.0): 28.94 kcal/mol; re-estimated homolysis rate constant kd at 120 °C ([2]; MeOH/water 2:1 pH = 7.0): 19.5 10^−3 s^−1; homolysis rate constant kd′ ([2]; MeOH/water 2:1 pH = 7.0, 81 °C): 3.3 10^−4s^−1; half-life ([2]; buffer, pH 7, half-lifetime t1/2 at 37 °C, MeOH/water 2:1 pH = 7.0): 295 h; half-life ([2]; half-lifetime t1/2 at 37 °C, t-BuPh): 180 h; activation energy Ea ([2]; t-BuPh): 28.87 kcal/mol; re-estimated homolysis rate constant kd at 120 °C ([2]; t-BuPh): 21.1 10^−3 s^−1; homolysis rate constant kd′ ([2]; t-BuPh, 81 °C): 3.8 10^−4s^−1
CCOP(=O)(OCC)C(N(OC(CN)c1ccccc1)C(C)(C)C)C(C)(C)C (stereo not drawn) [(RS/SR)-1A]		1.0 ± 0.05	1	S. mansoni Mean Survival Time (Adult S. mansoni): 1.0 ± 0.05 h; IC50 (Vero cells; listed as (RS/SR)-1A): 21 µM
CCOP(=O)(OCC)C(N(OC(CO)c1ccccc1)C(C)(C)C)C(C)(C)C (stereo not drawn) [(RS/SR)-1C]	> 10	1.4 ± 0.2	2	
CCOP(=O)(OCC)C(N(OC(COC)c1ccccc1)C(C)(C)C)C(C)(C)C (stereo not drawn) [(RS/SR)-1D]	> 10	3.8 ± 0.5	6	
CCOP(=O)(OCC)C(N(OC(CN)c1cc[n+]([O-])cc1)C(C)(C)C)C(C)(C)C (stereo not drawn) [(RS/SR)-1e]	> 10	> 8	> 8	
CCOP(=O)(OCC)C(N(OC(CN)c1ccccn1)C(C)(C)C)C(C)(C)C (stereo not drawn) [(RS/SR)-1g]	> 10	2.6 ± 0.3	4	
CCOP(=O)(OCC)C(N(OC(CNC(=O)C(F)(F)F)c1ccccn1)C(C)(C)C)C(C)(C)C (stereo not drawn) [(RS/SR)-1h]	> 10	> 8	> 8	
CCOP(=O)(OCC)C(N(OC(CO)c1ccccn1)C(C)(C)C)C(C)(C)C (stereo not drawn) [(RS/SR)-1i]	> 10	> 8	> 8	
CCOP(=O)(OCC)C(N(OC(C)c1ncc[nH]1)C(C)(C)C)C(C)(C)C (stereo not drawn) [(RS/SR)-1k]	> 10	> 8	> 8	
CCOP(=O)(OCC)C(N(OC(C)n1ccnc1)C(C)(C)C)C(C)(C)C (stereo not drawn) [(RS/SR)-1o]	25	1.1 ± 0.1	2	
CCOP(=O)(OCC)C(N(OC(C)c1c[nH]cn1)C(C)(C)C)C(C)(C)C (stereo not drawn) [(RS/SR)-1p]	20.5	1.4 ± 0.3	3	
CCOP(=O)(OCC)C(N(OC(C)c1ccc([N+](=O)[O-])cc1)C(C)(C)C)C(C)(C)C (stereo not drawn) [(RS/SR)-1v]	> 10	> 8	> 8	
CCOP(=O)(OCC)C(N(OC(C)c1ccc(N)cc1)C(C)(C)C)C(C)(C)C (stereo not drawn) [(RS/SR)-1w]	> 10	> 8	> 8	
CCOP(=O)(OCC)C(N(OC(C)c1ccc(C(=O)OC)cc1)C(C)(C)C)C(C)(C)C (stereo not drawn) [(RS/SR)-1x]	> 10	2.4 ± 0.3	4	
CCOP(=O)(OCC)C(N(OC(C)c1ccccc1)C(C)(C)CO)C(C)(C)C (stereo not drawn) [(RS/SR)-2z]	> 10	> 8	> 8	

From PMC7503767, “Alkoxyamines Designed as Potential Drugs against Plasmodium and Schistosoma Parasites” (Molecules, 2020)
